“Also recorded” adds a separate entry of the source.
Experiments:
[1] = test system: panel of the most common ALDH isoforms; assay: AlDeSense isoform selectivity assay; assay type: biochemical, human; conditions: 20 units of each isoform, 1 μM AlDeSense
Description: The activity of each isoform of ALDH was confirmed by monitoring the production of NADH at 340 nm when incubated with the most commonly used substrate for that enzyme (propionaldehyde for ALDH1A1, ALDH1A2, ALDH1A3, ALDH2 and ALDH4A1; benzaldehyde for ALDH3A1, and succinic semialdehyde for ALDH5A1). Each isoform was diluted with 50 mM triethanolamine (TEA, pH 7.4) to a final concentration of 1 μM and placed in a 1 mL quartz cuvette. Directly before measurement, NAD^+ was added to final concentration of 2.5 mM and the preferred substrate was added to a final concentration of 1 mM. Absorbance spectra were taken from 300 to 500 nm every half minute for 15 minutes. Units of activity for each enzyme were calculated from the slope of absorbance increase at 340 nm over time, (1 unit=1 μmol substrate turned over/[…]/min).
Activation of AlDeSense was assessed using 20 units of each ALDH isoform. Activity was determined by activity measurements using each isoform's preferred substrate (1 unit=1 μmol substrate turned over/mol enzyme/min). Further details are in the supplementary information. […]
AlDeSense activation was determined using fluorescence. […] After vigorous mixing, the reaction was monitored at room temperature for 15 min. Fluorescence spectra were acquired according to following parameters: λex=498 nm, and emission range=505-580 nm. […]

[2] = test system: e-CSC and non-CSC B16F0 tumors; assay: In vivo melanoma tumor fluorescence imaging; design: species or system mice; conditions: 1 and 2 weeks
ALDH1A1 = target: T1, ALDH1A1 (Homo sapiens, UniProt P00352); assay: ALDH isoform selectivity of red probes: ALDH1A1; assay type: biochemical
T1 construct: made in house
T1 sequence (P00352 1-501): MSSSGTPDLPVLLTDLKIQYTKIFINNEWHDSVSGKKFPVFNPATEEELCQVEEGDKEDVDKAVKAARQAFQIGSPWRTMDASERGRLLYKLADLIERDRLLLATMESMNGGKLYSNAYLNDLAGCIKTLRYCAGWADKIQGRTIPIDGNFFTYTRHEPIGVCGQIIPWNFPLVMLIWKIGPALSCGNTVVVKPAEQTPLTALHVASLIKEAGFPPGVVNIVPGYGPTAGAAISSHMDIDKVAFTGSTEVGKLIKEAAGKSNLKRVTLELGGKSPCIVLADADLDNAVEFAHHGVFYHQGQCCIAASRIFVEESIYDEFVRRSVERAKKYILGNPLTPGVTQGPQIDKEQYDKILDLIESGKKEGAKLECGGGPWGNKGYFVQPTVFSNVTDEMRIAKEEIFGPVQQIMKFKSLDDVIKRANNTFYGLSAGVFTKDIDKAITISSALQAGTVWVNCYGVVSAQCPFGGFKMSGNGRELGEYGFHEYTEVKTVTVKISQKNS
Description: Each ALDH isoform was added to a 50 mM triethanolamine solution (pH 7.4) containing 2.0 mM NAD^+ and 100 μM substrate at room temperature. Benzaldehyde was the substrate for ALDH3A1. Propanal was the substrate for all other isoforms. ALDH isoform activity was determined by monitoring the rate of NADH production through the increase in absorbance at 340 nm (ε=6220 M^−1cm^−1). For these assays, 1 unit is defined as the amount of enzyme that catalyzes the conversion of […] per minute. For every combination of dye and enzyme, 2 μM dye was preincubated with 2.0 mM NAD^+ in 50 mM triethanolamine solution (pH 7.4). The reaction was initiated by addition of 1 unit of ALDH. Dyes were excited at 590 nm, and fluorescence was measured continuously at 610 nm.

A549 cells = assay: Confocal imaging of A549 cells with red-AlDeSense; assay type: cell-based; conditions: 1 μM dye
Description: Nunc™ Lab-Tek™ 8-well Chamber Coverglass (Thermo Fisher) were coated with poly-L-lysine (Trevigen). For cells that were also stained with an antibody, 2,000,000 cells were transferred to an Eppendorf tube. The cells were resuspended in 200 μL of antibody buffer (5% BSA and 1 mg/mL NaN3 in PBS) and treated with 2 μL FITC-labeled anti-CD44 antibody (10 mg/mL, Sino Biological) and left on ice for 20 minutes. In all cases, cells were added at 150,000 cells/well to the coated slides 1 hour prior to imaging. […] Cells were treated with 100 uL red-AlDeSense or Ctrl-red-AlDeSense solution (4 μM dye in imaging buffer; dyes were normalized by fluorescence spectroscopy) and 0.8 μL Hoescht 33342 (5 mg/mL in PBS) for 10 minutes. […] Hoescht 33342 was excited with a 405 nm laser and detected with a 415-502 filter set. FITC was excited with a 488 nm laser and detected with a 502-561 filter set. […] was excited with a 594 nm laser and detected with a 600-735 filter set. […] Images were analyzed using ZEN 3.0 (blue edition) software. Mean fluorescence for the FITC-labeled anti-CD44 antibody was multiplied by the cell diameter to account for its 1-dimensional cell membrane staining, as opposed to 2-dimensional intracellular staining of (Ctrl-)red-AlDeSense.

Structure (SMILES) | cross-reactivity against panel of ALDH isoforms [1] | signal in e-CSC versus non-CSC tumors [2] | turn-on response when treated with ALDH1A1 (ALDH1A1) [fold] | Enzyme Activity 1A1 (ALDH1A1; Table 2) | Enzymatic Turn On (ALDH1A1; Table 2, ALDH1A1, 2 μM dye) | A549 cells with high ALDH1A1 activity by confocal microscopy (A549 cells) [%]
Cc1cc(C=O)ccc1-c1c2cc(F)c(=O)cc-2oc2cc(O)c(F)cc12 [AlDeSense] | only ALDH1A1 led to probe activation; also recorded: did not observe cross-reactivity; also recorded: selective for only the ALDH1A1 isoform | consistently higher signal | – | – | – | –
Cc1cc(C=O)c(F)c(F)c1C1=C2C=CC(=O)C=C2[Si](C)(C)c2cc(O)ccc21 | – | – | 3.2 | High | 3.2 | 77.6

Source: patent publication US11407725B2 (The Board of Trustees of the University of Illinois, priority 2018, dated 2022)
